Assay results: patent publication US5714496A, “Quinuclidine derivatives as squalene synthase inhibitors” (Zeneca Limited, priority 1992, dated 1998)

Columns and labels:
[1] = test system: de novo hepatic cholesterol synthesis from 14C-acetate; test: Acute rat cholesterol synthesis assay; format: in vivo; conditions: plasma cholesterol specific radioactivity after ip [2-14C]-acetate given 1 hour after the compound
Experimental: (b) Acute rat cholesterol synthesis assay.
This is an acute in vivo test in the rat to measure de novo hepatic cholesterol synthesis from exogenously administered ^14 C-acetate.
Female rats (35-55 g) are housed in reverse lighting conditions (red light from 0200 h-1400 h) for a period of about 2 weeks prior to test. Animals are allowed free access to chow and drinking water throughout this period. At test, animals should weigh 125-150 g.
Test compounds may be administered by oral gavage, dissolved or suspended in 0.5% polysorbate, or by ip or iv dosing. Control animals receive vehicle alone. After 1 hour the rats are injected ip with 25 μCi [2-^14 C]-acetate (NEN DUPONT, specific activity, 45-60 mCi/mmol NEC-085H, or AMERSHAM specific activity, 50-60 mCi/mmol CFA 14) in a volume of 0.25 ml saline (100 μCi/ml). After a further hour, rats are terminally anaesthetised with halothane and a blood sample obtained from the abdominal vena cava.
1 ml of plasma is lyophilised and then saponified in 2 ml ethanolic KOH (1 part 33% KOH, 9 parts ethanol) at 75° C. for 2 hours. After addition of an equal quantity of water, non-saponifiable lipids are extracted with two 5 ml volumes of hexane. The hexane extracts are evaporated to dryness and the residues dissolved in ethanol to determine cholesterol specific radioactivity. ED50 values can be determined in the standard way.

[2] = test system: squalene synthase (rat liver microsomal protein); test: Inhibition of squalene synthase (squalene formation from tritiated farnesyl pyrophosphate); format: biochemical; conditions: at 2.5 μM; rat liver microsomes, 20 μM [3H]-farnesyl pyrophosphate, 15 min, 37° C.
Experimental: (a) Inhibition of Squalene synthase
In this test, the ability of a compound to prevent the formation of squalene from a radioactive substrate (tritiated farnesyl pyrophosphate) is assessed.
The test compound is incubated at a concentration of 25 micromolar in 200 μl of a buffered solution containing potassium phosphate (50 mM), MgCl2 (4.95 mM), KF (9.9 mM), NADPH (0.9 mM) and rat liver microsomal protein (20 μg). Rat liver microsomes are prepared by the method described in published European Patent Application No. 324,421 and stored in liquid nitrogen prior to assay. Assay vials are kept at 37° C. throughout the incubation.
The reaction is started with the addition of the substrate (1-[^3 H]-farnesyl pyrophosphate), final concentration 20 μM, and stopped after 15 minutes reaction time with the addition of 50 μl of 4% KOH. The reaction products are separated from unreacted substrate after application to a C-18 octadecyl 1 ccBond column (Analytichem Int product No. 617101). An aqueous fraction is eluted with 250 μl of 0.1M KOH. Squalene is then eluted with 1.0 ml 10% ethylacetate in hexane and radioactivity determined. The difference in radioactivity in the presence and absence of the test compound is used to determine the level of inhibition. […] The IC50 can then be determined from a plot of percentage inhibition against concentration of test compound.

Q: For `OC1(C#Cc2ccc(-c3ccccn3)cc2)CN2CCC1CC2` (centres unmarked) [Example 2, 3-[2-(4-[2-pyridyl]phenyl)ethynyl]-3-hydroxyquinuclidine], which ED50 [1] is on record?
A: 8 mg/kg

Q: What about the “inhibition of squalene synthase” value [2] of the same compound?
A: about 98%
